ChEMBL document CHEMBL6103556, “Design and evaluation of anaplastic lymphoma kinase degraders using a covalent fumarate handle” (Bioorg Med Chem Lett, 2025)

Tests used:
NCI-H3122 [1] = assay: cells; details: Homo sapiens, NCI-H3122, 72 h
Description: Antiproliferative activity against human NCI-H3122 cells expressing EML4-ALK fusion assessed as cell growth inhibition incubated for 72 hrs by CellTiter-Glo assay

NCI-H3122 [2] = assay: Antiproliferative activity against human NCI-H3122 cells transfected with siRNF126 assessed as cell growth inhibition measured after 72 hrs by CellTiter-Glo assay; assay type: functional
NCI-H3122 [3] = assay: Induction of EML4-ALK degradation in human NCI-H3122 cells assessed as reduction in ALK level by measuring fold change at 100 nM measured after 24 hrs by Western blot analysis (reference value: […]); assay type: cell-based
[4] = biological target: T1, Proto-oncogene tyrosine-protein kinase ROS (Homo sapiens, UniProt P08922); assay: Inhibition of ROS (unknown origin) by Eurofins kinase profiler method
T1 sequence (P08922 whole entry): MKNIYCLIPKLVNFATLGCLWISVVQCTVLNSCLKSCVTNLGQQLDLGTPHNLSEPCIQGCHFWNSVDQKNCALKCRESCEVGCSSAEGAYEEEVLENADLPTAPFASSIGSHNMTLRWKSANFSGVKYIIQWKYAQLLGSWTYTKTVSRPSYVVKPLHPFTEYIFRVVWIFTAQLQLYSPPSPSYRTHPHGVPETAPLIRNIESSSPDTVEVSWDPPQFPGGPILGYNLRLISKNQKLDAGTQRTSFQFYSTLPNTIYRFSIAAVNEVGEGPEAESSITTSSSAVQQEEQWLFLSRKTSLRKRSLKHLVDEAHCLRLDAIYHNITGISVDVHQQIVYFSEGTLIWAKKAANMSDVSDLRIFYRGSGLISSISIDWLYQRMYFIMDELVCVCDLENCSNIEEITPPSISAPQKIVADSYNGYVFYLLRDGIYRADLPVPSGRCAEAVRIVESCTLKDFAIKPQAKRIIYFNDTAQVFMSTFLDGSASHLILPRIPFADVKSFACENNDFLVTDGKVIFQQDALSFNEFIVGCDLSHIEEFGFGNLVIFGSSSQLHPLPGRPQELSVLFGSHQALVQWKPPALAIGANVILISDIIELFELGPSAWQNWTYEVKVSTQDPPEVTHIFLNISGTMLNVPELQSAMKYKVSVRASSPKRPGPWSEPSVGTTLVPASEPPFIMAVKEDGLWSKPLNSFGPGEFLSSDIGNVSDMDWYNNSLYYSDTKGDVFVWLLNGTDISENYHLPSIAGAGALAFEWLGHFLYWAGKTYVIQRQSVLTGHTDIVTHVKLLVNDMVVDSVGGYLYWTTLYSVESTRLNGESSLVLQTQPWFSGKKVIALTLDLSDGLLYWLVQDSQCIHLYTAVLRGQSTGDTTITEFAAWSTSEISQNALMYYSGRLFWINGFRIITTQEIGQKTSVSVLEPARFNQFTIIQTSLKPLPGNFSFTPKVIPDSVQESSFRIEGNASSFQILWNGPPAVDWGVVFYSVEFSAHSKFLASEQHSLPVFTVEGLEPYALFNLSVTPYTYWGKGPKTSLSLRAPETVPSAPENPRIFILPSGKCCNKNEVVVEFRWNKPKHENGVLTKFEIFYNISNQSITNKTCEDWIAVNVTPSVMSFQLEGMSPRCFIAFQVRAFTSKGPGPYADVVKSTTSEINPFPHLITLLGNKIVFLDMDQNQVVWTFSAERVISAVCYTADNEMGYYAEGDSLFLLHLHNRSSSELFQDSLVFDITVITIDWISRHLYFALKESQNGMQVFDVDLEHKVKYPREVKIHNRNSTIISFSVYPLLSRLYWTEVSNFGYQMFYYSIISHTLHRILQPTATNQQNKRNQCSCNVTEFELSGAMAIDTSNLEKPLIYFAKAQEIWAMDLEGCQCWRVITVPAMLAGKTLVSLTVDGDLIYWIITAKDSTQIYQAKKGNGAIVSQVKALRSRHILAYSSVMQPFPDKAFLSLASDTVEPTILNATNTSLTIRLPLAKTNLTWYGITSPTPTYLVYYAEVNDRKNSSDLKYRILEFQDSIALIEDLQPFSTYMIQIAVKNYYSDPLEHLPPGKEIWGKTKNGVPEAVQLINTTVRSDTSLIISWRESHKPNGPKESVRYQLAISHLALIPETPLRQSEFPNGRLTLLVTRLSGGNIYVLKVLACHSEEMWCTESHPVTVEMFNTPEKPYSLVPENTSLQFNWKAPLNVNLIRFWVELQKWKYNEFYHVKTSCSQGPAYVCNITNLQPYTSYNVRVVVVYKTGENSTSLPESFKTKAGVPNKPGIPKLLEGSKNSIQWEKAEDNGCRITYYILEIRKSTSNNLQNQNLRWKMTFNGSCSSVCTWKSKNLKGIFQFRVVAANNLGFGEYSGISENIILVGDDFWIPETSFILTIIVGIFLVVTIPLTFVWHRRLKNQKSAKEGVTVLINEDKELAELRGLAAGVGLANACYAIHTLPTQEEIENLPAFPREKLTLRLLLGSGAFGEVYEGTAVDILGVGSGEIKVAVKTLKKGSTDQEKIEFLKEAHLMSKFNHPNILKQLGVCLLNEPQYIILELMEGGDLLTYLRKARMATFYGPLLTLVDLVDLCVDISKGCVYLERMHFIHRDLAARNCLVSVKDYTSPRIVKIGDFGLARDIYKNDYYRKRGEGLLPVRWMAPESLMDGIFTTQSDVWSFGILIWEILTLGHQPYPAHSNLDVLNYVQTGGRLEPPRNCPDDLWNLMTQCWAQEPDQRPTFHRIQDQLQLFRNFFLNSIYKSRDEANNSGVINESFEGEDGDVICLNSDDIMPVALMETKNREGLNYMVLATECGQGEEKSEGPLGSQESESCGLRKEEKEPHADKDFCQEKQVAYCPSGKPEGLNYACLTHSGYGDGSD

[5] = tested on: Epidermal growth factor receptor (Homo sapiens), P00533 [L858R]; assay: Inhibition of EGFR L858R (unknown origin) at 1 uM by Eurofins kinase profiler method relative to control
[6] = biological target: Insulin-like growth factor 1 receptor (Homo sapiens) (UniProt P08069); assay: Inhibition of IGF-1R (unknown origin) at 1 uM by Eurofins kinase profiler method relative to control
Chain of Insulin-like growth factor 1 receptor (Homo sapiens) (P08069 31-736 limits assumed): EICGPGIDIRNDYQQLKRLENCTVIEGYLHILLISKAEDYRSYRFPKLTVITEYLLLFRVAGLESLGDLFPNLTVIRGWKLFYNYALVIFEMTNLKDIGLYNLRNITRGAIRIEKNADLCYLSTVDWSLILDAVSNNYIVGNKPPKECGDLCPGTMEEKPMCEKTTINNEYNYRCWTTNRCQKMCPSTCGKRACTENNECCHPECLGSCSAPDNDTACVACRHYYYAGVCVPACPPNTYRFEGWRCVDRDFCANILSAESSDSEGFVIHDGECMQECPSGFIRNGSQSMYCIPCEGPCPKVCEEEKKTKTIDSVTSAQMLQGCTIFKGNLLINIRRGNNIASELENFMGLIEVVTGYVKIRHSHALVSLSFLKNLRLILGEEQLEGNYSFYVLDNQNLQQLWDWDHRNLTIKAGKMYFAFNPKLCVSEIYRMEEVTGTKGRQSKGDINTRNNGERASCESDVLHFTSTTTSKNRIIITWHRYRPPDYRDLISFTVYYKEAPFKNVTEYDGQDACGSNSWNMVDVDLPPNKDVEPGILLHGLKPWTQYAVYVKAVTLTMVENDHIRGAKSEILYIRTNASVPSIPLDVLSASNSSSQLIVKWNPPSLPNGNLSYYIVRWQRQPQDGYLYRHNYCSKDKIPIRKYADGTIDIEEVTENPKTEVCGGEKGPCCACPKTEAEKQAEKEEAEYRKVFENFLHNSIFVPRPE
Chain of Insulin-like growth factor 1 receptor (Homo sapiens) (P08069 741-1367 limits assumed): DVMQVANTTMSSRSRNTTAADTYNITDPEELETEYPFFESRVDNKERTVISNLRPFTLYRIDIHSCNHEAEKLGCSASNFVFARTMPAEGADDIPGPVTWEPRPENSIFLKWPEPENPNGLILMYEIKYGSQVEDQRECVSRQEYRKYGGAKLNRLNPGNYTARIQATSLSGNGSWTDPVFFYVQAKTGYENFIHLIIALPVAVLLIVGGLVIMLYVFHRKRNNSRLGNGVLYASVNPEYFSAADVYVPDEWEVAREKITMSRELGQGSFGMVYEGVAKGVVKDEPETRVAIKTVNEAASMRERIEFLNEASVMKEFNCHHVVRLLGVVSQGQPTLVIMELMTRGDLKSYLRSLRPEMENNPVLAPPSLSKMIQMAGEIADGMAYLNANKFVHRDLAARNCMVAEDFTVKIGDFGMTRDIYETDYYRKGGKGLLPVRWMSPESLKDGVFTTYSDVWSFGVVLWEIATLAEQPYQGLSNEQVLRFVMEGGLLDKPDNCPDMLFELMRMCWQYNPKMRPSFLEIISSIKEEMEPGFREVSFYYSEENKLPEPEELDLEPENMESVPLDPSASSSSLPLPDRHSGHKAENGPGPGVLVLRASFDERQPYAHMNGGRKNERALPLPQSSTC

[7] = biological target: T1, Proto-oncogene tyrosine-protein kinase ROS; assay: Inhibition of ROS (unknown origin) at 1 uM by Eurofins kinase profiler method relative to control
[8] = biological target: Epidermal growth factor receptor (Homo sapiens, UniProt P00533, L858R); assay: Inhibition of EGFR L858R (unknown origin) by Eurofins kinase profiler method
[9] = biological target: Insulin receptor (Homo sapiens) (UniProt P06213); assay: Inhibition of IR (unknown origin) at 1 uM by Eurofins kinase profiler method relative to control
Chain of Insulin receptor (Homo sapiens) (P06213 28-758 limits assumed): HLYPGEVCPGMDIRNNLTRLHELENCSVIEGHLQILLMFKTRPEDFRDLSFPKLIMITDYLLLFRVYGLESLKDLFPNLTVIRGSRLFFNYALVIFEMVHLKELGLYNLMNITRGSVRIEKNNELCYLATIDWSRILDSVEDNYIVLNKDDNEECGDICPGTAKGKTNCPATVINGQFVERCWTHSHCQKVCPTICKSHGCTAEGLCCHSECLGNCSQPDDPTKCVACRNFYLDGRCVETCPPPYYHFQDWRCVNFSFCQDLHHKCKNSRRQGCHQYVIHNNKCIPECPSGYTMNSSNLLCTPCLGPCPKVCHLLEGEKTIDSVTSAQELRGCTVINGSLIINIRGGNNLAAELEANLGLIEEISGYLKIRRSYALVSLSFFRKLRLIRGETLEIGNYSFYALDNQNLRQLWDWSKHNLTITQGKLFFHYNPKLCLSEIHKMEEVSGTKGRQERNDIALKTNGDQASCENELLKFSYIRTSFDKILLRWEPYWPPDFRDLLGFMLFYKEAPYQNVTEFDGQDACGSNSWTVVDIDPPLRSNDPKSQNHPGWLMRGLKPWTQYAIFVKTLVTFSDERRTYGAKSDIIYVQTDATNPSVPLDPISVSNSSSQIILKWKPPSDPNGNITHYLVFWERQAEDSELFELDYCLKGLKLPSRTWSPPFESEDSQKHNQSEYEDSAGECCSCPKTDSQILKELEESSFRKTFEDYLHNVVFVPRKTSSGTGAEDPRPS
Chain of Insulin receptor (Homo sapiens) (P06213 763-1382 limits assumed): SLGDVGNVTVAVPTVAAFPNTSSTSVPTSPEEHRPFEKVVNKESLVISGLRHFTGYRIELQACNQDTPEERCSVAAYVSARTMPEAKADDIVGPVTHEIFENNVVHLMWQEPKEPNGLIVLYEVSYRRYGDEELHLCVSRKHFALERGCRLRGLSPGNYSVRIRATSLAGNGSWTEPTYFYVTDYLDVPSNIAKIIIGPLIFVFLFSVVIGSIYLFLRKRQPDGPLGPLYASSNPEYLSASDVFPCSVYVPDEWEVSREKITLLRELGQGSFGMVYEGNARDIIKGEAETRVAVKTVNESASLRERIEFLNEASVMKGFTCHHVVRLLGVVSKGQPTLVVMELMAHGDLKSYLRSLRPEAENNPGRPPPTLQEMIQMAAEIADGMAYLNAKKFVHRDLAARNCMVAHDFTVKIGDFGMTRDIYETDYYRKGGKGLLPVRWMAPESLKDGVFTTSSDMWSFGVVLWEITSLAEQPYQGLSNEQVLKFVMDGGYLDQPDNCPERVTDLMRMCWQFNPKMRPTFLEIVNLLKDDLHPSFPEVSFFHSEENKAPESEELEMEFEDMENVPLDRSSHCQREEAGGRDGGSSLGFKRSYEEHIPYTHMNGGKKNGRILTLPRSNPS

SMILES | GI50 (NCI-H3122 [1]) | also measured
COc1ccc(C(=O)CCC(=O)N2CCC(c3cc(OC(C)C)c(Nc4ncc(Cl)c(Nc5ccccc5S(=O)(=O)C(C)C)n4)cc3C)CC2)cc1 | 747 nM | 
CCc1cc2c(cc1N1CCC(N3CCN(C(=O)CCC(=O)c4ccc(OC)cc4)CC3)CC1)C(C)(C)c1[nH]c3cc(C#N)ccc3c1C2=O | > 5000 nM | 
COc1ccc(C(=O)/C=C/C(=O)N2CCC(c3cc(OC(C)C)c(Nc4ncc(Cl)c(Nc5ccccc5S(=O)(=O)C(C)C)n4)cc3C)CC2)cc1 | 209 nM | 
COc1ccc(C(=O)CCC(=O)N2CCN(C3CCN(c4ccc(Nc5ncc(Cl)c(Nc6ccccc6P(C)(C)=O)n5)c(OC)c4)CC3)CC2)cc1 | 66 nM | GI50 (NCI-H3122 [2]): 111 nM
CC(C)C[C@H](NC(=O)[C@H](Cc1ccccc1)NC(=O)c1cnccn1)B(O)O |  | fold change (FC) (NCI-H3122 [3]): 1
COc1cc(N2CCC(N3CCN(C)CC3)CC2)ccc1Nc1ncc(Cl)c(Nc2ccccc2P(C)(C)=O)n1 [BRIGATINIB] | 35 nM | GI50 (NCI-H3122 [2]): 43 nM
Cc1cc(Nc2ncc(Cl)c(Nc3ccccc3S(=O)(=O)C(C)C)n2)c(OC(C)C)cc1C1CCNCC1 [CERITINIB] | 23 nM | 
CCc1cc2c(cc1N1CCC(N3CCOCC3)CC1)C(C)(C)c1[nH]c3cc(C#N)ccc3c1C2=O [ALECTINIB] | 23 nM | 
COc1ccc(C(=O)/C=C/C(=O)N2CCC(n3cc(-c4cnc(N)c(O[C@H](C)c5c(Cl)ccc(F)c5Cl)c4)cn3)CC2)cc1 | 56 nM | 
CCc1cc2c(cc1N1CCC(N3CCN(C(=O)/C=C/C(=O)c4ccc(OC)cc4)CC3)CC1)C(C)(C)c1[nH]c3cc(C#N)ccc3c1C2=O | 88 nM | 
COc1ccc(C(=O)CCC(=O)N2CCC(n3cc(-c4cnc(N)c(O[C@H](C)c5c(Cl)ccc(F)c5Cl)c4)cn3)CC2)cc1 | 1100 nM | 
COc1ccc(C(=O)/C=C/C(=O)N2CCN(C3CCN(c4ccc(Nc5ncc(Cl)c(Nc6ccccc6P(C)(C)=O)n5)c(OC)c4)CC3)CC2)cc1 | 2 nM | GI50 (NCI-H3122 [2]): 2 nM; IC50 [4]: 185 nM; inhibition [5]: 82%; inhibition [6]: 44%; inhibition [7]: 73%; IC50 [8]: 97.1 nM; inhibition [9]: 48%
